In PubChem BioAssay (NCI):
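Values below derive from 48-hour exposures of cells grown in 96-well plates, with endpoints linearly interpolated between the two concentrations bracketing the appropriate inhibition level. At the GI50, growth is halved. At the TGI there is no net growth.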

Legend:
Experiment in all cases: DTP human tumour cell line panel, 48 h
[1] = test system: RPMI-8226 leukemia
[2] = test system: OVCAR-8 ovarian
[3] = test system: SF-295 CNS
[4] = test system: UO-31 renal
[5] = test system: CAKI-1 renal
[6] = test system: TK-10 renal
[7] = test system: HOP-62 NSCLC
[8] = test system: U251 CNS
[9] = test system: SNB-19 CNS
[10] = test system: MOLT-4 leukemia

| SMILES | GI50 [1] [µM] | TGI [1] [µM] | GI50 [2] [µM] | TGI [2] [µM] | GI50 [3] [µM] | TGI [3] [µM] | GI50 [4] [µM] | TGI [4] [µM] | GI50 [5] [µM] | TGI [5] [µM] | GI50 [6] [µM] | TGI [6] [µM] | GI50 [7] [µM] | TGI [7] [µM] | GI50 [8] [µM] | TGI [8] [µM] | GI50 [9] [µM] | TGI [9] [µM] | GI50 [10] [µM] | TGI [10] [µM] |
| --- | --- | --- | --- | --- | --- | --- | --- | --- | --- | --- | --- | --- | --- | --- | --- | --- | --- | --- | --- | --- |
| COc1cccc(C(=O)Nc2ccc(CN3CCc4nc5cc(OC)c(OC)cc5cc43)cc2)c1 | 3.89 | 24.3 | 3.88 | > 100 | 5.72 | 28.1 | 3.36 | 60.1 | 3 | 20.9 | 3.78 | 21.4 | 13.5 | 37.8 | 3.17 | 12.7 | 8.12 | > 100 | 2.85 | 10.7 |
| CCN(CC)C(=O)CC1=C(C)/C(=C/c2[nH]c(-c3ccc[nH]3)cc2OC)N=C1C | 0.304 | 2.28 | 0.455 | 22.5 | 0.361 | 1.73 | 0.554 | 2.5 | 0.383 | 11.4 | 0.466 | 17.3 | 0.504 | 11.6 | 0.449 | 15.5 | 4.1 | > 100 | 0.357 | 39.4 |
| CN1CCN(CCCOc2cccc3nc(Nc4ccc(Cl)c(F)c4)ccc23)CC1 | 2.55 | 5.88 | 2.02 | 3.65 | 1.79 | 3.46 | 1.57 | 3.32 | 2.53 | 8.47 | 1.81 | 3.28 | 1.45 | 3.26 | 1.81 | 3.28 | 1.86 | 3.53 | 1.82 | 3.77 |
| CC(C)(C)[Si](C)(C)OCC1CCC(n2cnc3c(=O)[nH]cnc32)O1 (stereo not drawn) | – | > 100 | – | > 100 | – | > 100 | – | > 100 | – | > 100 | – | > 100 | – | > 100 | – | > 100 | – | > 100 | – | > 100 |
| O=C(Cn1c(=O)c(-c2ccccc2)nc2ccccc21)c1ccc(Cl)cc1 | 57.8 | > 100 | 51.9 | > 100 | 35.7 | > 100 | 80.8 | > 100 | 67.5 | > 100 | 25.7 | > 100 | 33.4 | > 100 | 37.6 | > 100 | 42.2 | > 100 | > 100 | > 100 |
| N#CC(C#N)=Cc1c(-c2ccccc2)[nH]c2ccccc12 | 0.564 | 4.62 | 5.75 | > 90.2 | 1.59 | 15.5 | 11 | > 75.6 | 5.66 | 48.7 | 5.23 | > 75.1 | 11.2 | 55.2 | 1.18 | 28 | 5.71 | > 100 | 13.3 | > 75.1 |
| NC(=O)c1cc(-c2ccncc2)cc(-c2ccccc2)c1N | 11.6 | > 25 | 15.1 | > 25 | > 25 | > 25 | 6.41 | > 25 | 8.34 | > 25 | 6.43 | > 25 | > 25 | > 25 | > 25 | > 25 | > 25 | > 25 | 20 | > 25 |
| COc1ccc(C2=Nc3ccccc3SC(C)C2)cc1 (stereo not drawn) | – | 60.2 | – | > 100 | – | > 100 | – | > 100 | – | > 100 | – | > 100 | – | > 100 | – | > 100 | – | > 100 | – | > 100 |
| NC1=NC(c2ccc(Cl)cc2)N(c2ccc(S(=O)(=O)Nc3ncccn3)cc2)C(N)=N1 (stereo not drawn) | – | > 100 | – | > 100 | – | > 100 | – | > 100 | – | > 100 | – | > 100 | – | > 100 | – | > 100 | – | > 100 | – | > 100 |
| COc1cc([N+](=O)[O-])c(S(=O)(=O)O)cc1NS(=O)(=O)c1ccc(C)cc1 | – | > 100 | – | > 100 | – | > 100 | – | > 100 | – | > 100 | – | > 100 | – | > 100 | – | > 100 | – | > 100 | – | > 100 |
| Cc1c(C(=O)CC(=O)C(=O)Nc2c(C(C)C)cccc2C(C)C)[n+](=O)c2ccccc2n1[O-] | – | 15.4 | – | 7.38 | – | 29.1 | – | 31.4 | – | 43 | – | 60.2 | – | 59.3 | – | 10.7 | – | 37.9 | – | 8.2 |
| CCNC(C)(C)C(SS)c1ccc(Br)cc1 (stereo not drawn) | – | 76.1 | – | > 100 | – | > 100 | – | > 100 | – | > 100 | – | > 100 | – | > 100 | – | > 100 | – | > 100 | – | 69.3 |
| COC(=O)C1CC(=O)CCC1c1ccccc1 (stereo not drawn) | – | > 100 | – | > 100 | – | > 100 | – | > 100 | – | > 100 | – | > 100 | – | > 100 | – | > 100 | – | > 100 | – | > 100 |
| CC[C@@]1(OC(=O)CN)C(=O)OCc2c1cc1n(c2=O)Cc2cc3cc4c(cc3nc2-1)OCO4 | < 0.0104 | 0.582 | < 0.01 | 0.13 | < 0.01 | < 0.01 | < 0.01 | 0.111 | < 0.01 | – | 0.108 | 9.21 | < 0.01 | < 0.0495 | < 0.01 | 0.202 | < 0.01 | 92.8 | < 0.01 | – |
